Publication PMC11103274 (Journal of the American Chemical Society, 2023)
Read-outs that look alike come from different tables or passages of the source.

Legend:
[1] = molecular target: T1, human serine racemase (hSR) (Homo sapiens, UniProt Q9GZT4); conditions: cited from earlier work
T1 sequence (Q9GZT4 1-340): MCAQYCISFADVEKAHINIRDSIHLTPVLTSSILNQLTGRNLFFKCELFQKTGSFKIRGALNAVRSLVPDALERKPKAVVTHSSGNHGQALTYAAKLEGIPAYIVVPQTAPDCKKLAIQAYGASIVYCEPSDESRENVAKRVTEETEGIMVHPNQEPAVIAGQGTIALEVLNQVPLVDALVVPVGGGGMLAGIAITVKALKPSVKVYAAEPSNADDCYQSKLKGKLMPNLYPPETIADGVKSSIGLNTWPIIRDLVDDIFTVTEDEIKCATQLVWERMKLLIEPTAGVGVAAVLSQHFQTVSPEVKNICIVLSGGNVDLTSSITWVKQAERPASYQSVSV

[2] = molecular target: T1, human serine racemase (hSR); assay: 13C/2H-isotopic crosstalk NMR dual function assay; conditions: for IC50: 13C/2H crosstalk NMR assay
[3] = solubility under assay conditions; assay type: physicochemical
[4] = molecular target: T1, human serine racemase (hSR); assay: steady state kinetic analysis, coupled UV-vis assay for β-elimination; assay type: biochemical
[5] = molecular target: T2, human serine racemase (hSR), allosteric ATP site (Homo sapiens, UniProt Q9GZT4); assay: steady state competition against ATP, L-Ser held constant at 30 mM; assay type: biochemical; conditions: L-Ser constant at 30 mM
T2 sequence (Q9GZT4 1-340): T1 sequence (Q9GZT4 1-340)

[6] = read-out: IC50(H/D-exchange), L-Ser 30 mM
[7] = read-out: IC50(β-elimination), positive controls

N[C@H](C(=O)O)[C@@H](O)C(=O)O [L-EHA, L-erythro-β-hydroxy-aspartate]
Ki ([1]; literature, most potent inhibitors yet identified): ~30 µM

NC(=O)C1=CN([C@@H]2O[C@H](COP(=O)(O)O)[C@@H](O)[C@H]2O)C=CC1 [NMNH, nicotinamide mononucleotide, reduced form]
mode of inhibition with respect to substrate ([1]; ref Mozzarelli and co-workers): non-competitive inhibition

O=C(O)CP(=O)(O)O [compound 1, phosphonoacetate, reference compound]
IC50 [2, 6]: 89 ± 35 µM | IC50 [2, 7]: 39000 ± 2000 µM

CCOP(=O)(CC(=O)O)OCC [compound 2, diethyl phosphonate acetate, reference compound]
IC50 ([2]; read-out: IC50(H/D-exchange), positive controls): 95000 ± 10000 µM | IC50 [2, 7]: 96000 ± 19000 µM

O=C(O)C(Cl)(Cl)C(=O)O [dichloromalonate]
Ki [1]: ~20 µM

O=C(O)CC(=O)O [malonate]
Ki ([1]; ref 33a): 20 to 120 µM

N-H indolo-chroman-2,4-dione [compound 10]
relative solubility [3]: more soluble than the N-alkyl congeners | Ki ([4]; read-out: Ki (L-SOS elim), β-elimination of L-serine-O-sulfate): 12 ± 4 µM | Ki ([4]; read-out: Ki (L-Ser elim), β-elimination of L-Ser): 44 ± 6 µM | mode of inhibition vs. substrate ([4]; steady state kinetics): non-competitive inhibition | inhibition in the NMR screen ([2]; 1 mM): complete inhibition | Hill coefficient of dose-response curve ([2]; NMR assay): ~ 2 | IC50 [2, 6]: 45 ± 6 µM | IC50 ([2]; read-out: IC50(β-elimination), L-Ser 30 mM): 36 ± 10 µM | mode of inhibition vs. ATP [5]: competing with ATP for the allosteric site
